Where a SMILES comes first, the peptide text is derived from it. The star is where a group is joined. X1 = COc1cccc2c1C(=O)c1c(O)c3c(c(O)c1C2=O)C[C@@](O)(C(=O)CO)C[C@@H]3O[C@H]1C[C@H](NC(=O)C2CCC(CN3C(=O)CC(*)C3=O)CC2)[C@H](O)[C@H](C)O1
Assays:
[1] = test system: MCF-10A; test: Cytotoxicity MTT/MTS assay, MCF-10A; type: cell-based; conditions: MCF-10A non-cancerous mammary epithelial cells; highest tested concentration 25 μM
Source text: (§1) FIG. 4A-C depicts the cytotoxicity of PDoxC, obtained by […], for three cell lines (MDA-MB-231 [FIG. 4A], MDA-MB-468 [FIG. 4B], and MCF-10A [FIG. 4C]). Cell viability is plotted against drug concentration (PDoxC or Dox) to obtain IC50 values. Each experimental point was done in duplicates or triplicates and the experiment was repeated once.
(§2) Next, the cytotoxicity of the peptide 31 PDoxC was compared to the DOX (free drug) using MTS assay (FIG. 4A-C). Three cell lines were used, two TNBC cell lines (MDA-MB-231 and MDA-MB-468) and one non-cancerous mammary epithelial MCF-10A cell line. […] This peptide 31 PDoxC is very promising as this level of selectivity has never been observed with previously reported peptide-drug conjugates.

[2] = test system: MDA-MB-468; test: Cytotoxicity MTT/MTS assay, MDA-MB-468; type: cell-based; conditions: MDA-MB-468 (TNBC) cells
Source text: as §1, §2

[3] = Stability of peptide GE11 in human serum at 37° C. (RP-HPLC); type: in vitro ADME
Method: Peptide was incubated with human serum at 37° C., and aliquots were removed at different time intervals for HPLC analysis.
Peptides show low proteolytic stability when administered systemically and must be stabilized for clinical application. […] The three N-terminal amino acids (1Y, 2H, 3W) were cleaved sequentially by proteolysis, giving three fragments (A, B, and C, Table 2)) that appear in the HPLC chromatograms. […] Therefore, blocking the N-terminus of the peptide with a chemotherapeutic drug yields a stable conjugate.

[4] = Stability of PDoxC in human serum at 37° C. (RP-HPLC); type: in vitro ADME; conditions: HPLC peak AUC
Method: (§3) FIG. 3 depicts the stability of the PDoxC in the presence of human or mouse serum at 37° C. The PDoxC was incubated with human or mouse serum and aliquots were removed at different time intervals for HPLC analysis. The AUC for PDoxC peak was used to calculate the percent intact at different time points.
(§4) The stability of the peptide 31 PDoxC was evaluated by incubating it with human or mouse serum at 37° C. (FIG. 3). Aliquots were removed at regular intervals to analyze the PDoxC using RP-HPLC.

[5] = test system: MDA-MB-231; test: Cytotoxicity MTT/MTS assay, MDA-MB-231; type: cell-based; conditions: MDA-MB-231 (TNBC) cells
Source text: as §1, §2

[6] = Stability of PDoxC in mouse serum at 37° C. (RP-HPLC); type: in vitro ADME; conditions: HPLC peak AUC
Method: as §3, §4

[7] = test system: EGFR expressing TNBC cells (MDA-MB-231 and MDA-MB-468); test: Peptide uptake by EGFR expressing TNBC cells; type: cell-based
Source text: (§5) The specific binding and uptake of peptide 22 (FITC labeled peptide) by EGFR in TNBC cells was confirmed by competition assay using flow cytometry.

[8] = test system: noncancerous mammary epithelial cells (MCF-10A and MCF12A); test: Peptide uptake by noncancerous mammary epithelial cells; type: cell-based
[9] = test system: TNBC cells (MDA-MB-468, 231, and 436); test: SPOT peptide array library screen for binding to TNBC cells versus normal breast cells; type: cell-based; conditions: peptide array incubated with TNBC cells (MDA-MB-468, 231, 436) or normal breast cells (MCF-10A, 12A); relative to lead GE11
Method: A library of 30 peptide sequences (in duplicates, total 60 peptides) was synthesized in an array format on functionalized cellulose membrane using SPOT synthesis. The peptide library was screened for identifying EGFR binding peptide in TNBC cells by incubating the library with TNBC cells (MDA-MB-468, 231, and 436) or normal breast (MCF-10A and 12A) cells.

[10] = test system: EGFR in MDA-MB-231 cells; test: EGF competition assay of FITC labeled peptide uptake by flow cytometry; type: cell-based
Source text: as §5

[11] = molecular target: T1, epidermal growth factor receptor (EGFR) on TNBC cells (UniProt P00533 25-1210, limits assumed); test: SPOT peptide array on cellulose membrane incubated with TNBC cells (MDA-MB-468, 231, 436) or normal breast cells
T1 construct: whole, on cells; also called ErbB1

Work on `COc1cccc2c1C(=O)c1c(O)c3c(c(O)c1C2=O)C[C@@](O)(C(=O)CO)C[C@@H]3O[C@H]1C[C@H](N)[C@H](O)[C@H](C)O1` [Free Dox, doxorubicin, reference compound] yielded an IC50 [1] of 1410 nM and an IC50 [2] of 570 nM.

With `CC[C@H](C)[C@H](NC(=O)[C@@H](NC(=O)[C@H](CC(N)=O)NC(=O)[C@H](CCC(N)=O)NC(=O)[C@@H]1CCCN1C(=O)[C@@H](NC(=O)[C@H](Cc1ccc(O)cc1)NC(=O)CNC(=O)[C@H](Cc1ccc(O)cc1)NC(=O)[C@H](Cc1c[nH]c2ccccc12)NC(=O)[C@H](Cc1c[nH]cn1)NC(=O)[C@@H](N)Cc1ccc(O)cc1)[C@@H](C)O)C(C)C)C(=O)O` [GE11] the “% Intact GE11” value ([3]; 0 h) was 100%, the remaining at 1 h ([3]; 1 h) was 49% and the remaining at 3 h ([3]; 3 h) was 18%. For the same molecule, the “% Intact GE11” value ([3]; 7 h) was 2% and the remaining at 7 h ([3]; 7 h) was 2%.

For `CC[C@H](C)[C@H](NC(=O)[C@@H](NC(=O)[C@H](CCCNC(=N)N)NC(=O)[C@H](CCC(=O)O)NC(=O)[C@@H]1CCCN1C(=O)[C@@H](NC(=O)[C@H](Cc1ccc(O)cc1)NC(=O)CNC(=O)[C@H](Cc1ccc(O)cc1)NC(=O)[C@H](Cc1c[nH]c2ccccc12)NC(=O)[C@H](Cc1c[nH]cn1)NC(=O)[C@H](Cc1ccc(O)cc1)NC(=O)[C@@H](N)CSC1CC(=O)N(CC2CCC(C(=O)N[C@H]3C[C@H](O[C@H]4C[C@](O)(C(=O)CO)Cc5c(O)c6c(c(O)c54)C(=O)c4c(OC)cccc4C6=O)O[C@@H](C)[C@H]3O)CC2)C1=O)[C@@H](C)O)C(C)C)C(=O)O` (some centres unmarked) [PDoxC] (H-C(X1)YHWYGYTPERVI-OH; N-terminus and C-terminus assumed), the half-life [4] was 12.7 h, the IC50 [5] was 2370 ± 550 nM and the half-life [6] was 4 h. The “IC50 ± SD” value [1] was “no toxicity” and the IC50 [2] was 2750 ± 570 nM.

In the case of “YHWYGYTPENVI [Peptide 22, used FITC labeled in uptake assays]”, the “uptake by EGFR expressing TNBC cells compared to the lead GE11” value [7] is reported as 47-123 fold, the “uptake by noncancerous mammary epithelial cells” value [8] is reported as “minimal uptake” and the “specific affinity for TNBC cells” value [9] is reported as “higher specific affinity”. For the same molecule, the “FITC-positive MDA-MB-231 cells” value ([10]; FITC labeled peptide alone, without excess EGF) was 99% and the “FITC-positive MDA-MB-231 cells” value ([10]; FITC labeled peptide in the presence of excess EGF protein) was 2%.

With YHWYGYTPKNVI [Peptide 26] the “specific affinity for TNBC cells” value [9] was “higher specific affinity”.

With YHWYGYTPQDVI [Peptide 23] the “specific affinity for TNBC cells” value [9] was “higher specific affinity”.

For YHWYGYTPQKVI [Peptide 27], the “specific affinity for TNBC cells” value [9] was “higher specific affinity”.

YHWYGYTPKNVI (made on a cellulose membrane by SPOT synthesis in the library screen) [peptide 26]: binds [11].

YHWYGYTPQDVI (made on a cellulose membrane by SPOT synthesis in the library screen) [peptide 23]: binds [11].

YHWYGYTPQKVI (made on a cellulose membrane by SPOT synthesis in the library screen, 12-mer derived from GE11 (N10K)) [peptide 27]: binds [11].
